The record followed here is a melting point compilation (Tetko et al.; mined from patent text by program, amines drawn as free bases though some values may be those of a salt).

Molecules are shown by their SMILES.

In the case of `COc1nc2cc([N+](=O)[O-])c(C)c(C(=O)NCCC(=O)OC(C)(C)C)c2nc1OC`, the melting point was 140 to 142 °C.
Consider `CCOC(=O)C1=C(COCCNC(=O)n2ccnc2)NC(C)=C(C(=O)OC)C1c1ccccc1Cl` (configuration not stated), for which the melting point was 149 to 151 °C.
Molecule `Cc1cc(C)nc(CCOc2ccc(NC(=O)N(C)C)cc2)c1` had a melting point of 113 to 114 °C.
The molecule `COc1ccc(N2CCOCC2)c2sc(C(=O)NCC(=O)c3cccs3)nc12` returned a melting point of 165 °C.
`COc1cc(CCc2c(/C=C/[N+](=O)[O-])ccc(OC)c2OC)cc(OC)c1` gave a melting point of 95 to 96 °C.
Regarding `COc1ccccc1N1CCN(CC(O)COc2ccc(OCc3ccccc3)c(C(C)(C)C)c2)CC1` (configuration not stated), the melting point was in the range of 133 to 134 °C.
Molecule `C=CC[C@H](C(N)=O)[C@@H](CC(C)C)C(=O)NC1N=C(N2CCCCCC2)c2ccccc2N(C)C1=O` (some centres not stated) displayed a melting point of 232 to 237 °C.
The result for `C=CCC1C(=O)N(c2ccccc2)N(c2ccccc2)C1=O` reads 135 to 137 °C; that for `CCCCCCCCNC(=O)C=CSC(C(=O)c1ccccc1)C(=O)c1cccn1C` (configuration not stated), 131 to 132 °C; that for `CCC1C(=O)c2cc(OC)c(Cl)c(Cl)c2C1=O` (configuration not stated), 153 to 154 °C.
`COC(=O)c1ccc(-c2ccc(C(F)(F)F)cc2)c(COC(C)=O)c1` displayed a melting point of 94 °C.
As for `OC(Cn1cncn1)(Cn1cnc(Cc2ccc(F)cc2)n1)c1ccccc1C(F)(F)F` (configuration not stated), the melting point lay in the range of 100 to 103 °C.
`Cn1ncc(/C=C/C(=O)Nc2ccc(CCc3cscn3)cc2)c1-c1ccc(F)cc1` came in with a melting point of 211 to 212 °C.
The result for `COc1ccccc1-n1c(-c2sc(Nc3ccc(Cl)cc3)nc2-c2ccccc2)nc2ccccc2c1=O` reads 230 to 232 °C; that for `CC(=O)Nc1cc(F)ccc1SCC#N`, 113 to 115 °C; that for `CC(=O)c1cccc(NC(=O)C=C(C)Cl)c1`, 152 °C.
For the molecule `O=C1N(c2ccc(Cl)c(Cl)c2)CCON1c1ccccc1`, the melting point was in the range of 112 to 113 °C.
Molecule `COC(=O)c1ccccc1S(=O)(=O)NC(=O)Nc1ncc(C)n(C)c1=O` returned a melting point of 192 to 193 °C.
`CCC1(CC)COP(=O)(Cc2ccc(N)cc2)OC1` returned a melting point of 128 to 129 °C.
`CC1(c2nnc(S(C)(=O)=O)s2)CC(F)(F)C1(F)Cl` (configuration not stated) registered a melting point of 63 °C.
`O=C(Nc1ccccc1OCCCBr)c1cccc2[nH]ccc12` yielded a melting point of 145 °C.
`C=C(C)C(=O)N1CCC(C(=O)O)CC1` displayed a melting point of 90 to 93 °C.
Consider `Cc1nc(-c2cc(C(C)(C)C)c(O)c(C(C)(C)C)c2)no1`, for which the melting point fell in the range of 126 to 127 °C.
In the case of `Cc1cnn(Cc2ccc3c(c2)-c2[nH]nc(-c4ccsc4)c2C3)c1`, the melting point was 262 to 263 °C.
With `CCCCCCC(Nc1ccccc1)=C1C(=O)ON=C1C`, the melting point fell in the range of 83 to 84 °C.
The result for `COc1cc(OC)c2cc(-c3ccc([N+](=O)[O-])cc3)oc2c1` reads 192 to 193 °C; that for `CC(C)(C=O)Oc1ccc(Cl)cc1C#N`, 85 to 88 °C; that for `CC(C)(CNC(=O)/C(CCO)=C(\c1ccc(Cl)cc1)c1ccc(S(C)(=O)=O)cc1)SN=O`, 150 to 153 °C.
`COc1ccc(Sc2ccccc2CC#N)cc1`: the melting point was in the range of 65 to 67 °C.
In the case of `COc1cc([N+](=O)[O-])c(Cl)cc1NC(=O)C1CCNCC1`, the melting point was in the range of 167 to 170 °C.
Take `O=c1c(Cc2cccnc2)nc2cccnc2n1-c1cccc(-c2ccc3ccccc3c2)c1`: the melting point fell in the range of 155 to 156 °C.
Take `COc1nc(C)cnc1NS(=O)(=O)c1cccnc1-c1ccc(C(C)C)cc1`: the melting point lay within 74 to 75 °C.
`CCCCCCCCCCCCCCNC(=O)c1cc(N)cc(C(=O)NCCCCCCCCCCCCCC)c1` showed a melting point of 171 to 178 °C.
The molecule `CC(=O)S[C@@H](CCN1C(=O)CCC1=O)C(=O)O` gave a melting point of 110 to 112 °C.
Molecule `COC(=O)C1=C2Nc3ccccc3C23CCN(Cc2ccccc2)C3CC1` (configuration not stated) showed a melting point of 58 to 60 °C.
On to `CC(=O)OCC1OC(SCC=Cc2ccccc2)C(OC(C)=O)C(OC(C)=O)C1OC(C)=O` (configuration not stated), for which the melting point is 113 to 114 °C.
Molecule `Cn1c(=O)n(O)c(=O)c2cc(F)c(N3CCCC3)cc21` displayed a melting point of more than 250 °C.
`Cc1ncc(Cl)c(C(=O)Nc2ccn3cc(-c4ccccc4)nc3n2)n1` yielded a melting point of more than 250 °C.
For `COc1cc2c(cc1-c1cccnc1)-c1c(C3=CCOCC3)c3c(n1CC2)C(=O)N(C(C)(C)C)CCCC3`, the melting point lay in the range of 208 to 210 °C.
Regarding `CCOC(=O)CC[C@H](NC(=O)c1ccc(CN(C=O)CC2CNc3nc(NC(=O)C(C)(C)C)nc(O)c3C2)cc1)C(=O)OCC` (some centres not stated), the melting point fell in the range of 149 to 151 °C.
With `COc1ccc(S(C)(=O)=O)cc1-c1nc2ccc(C(C)(C)CNC=O)cc2[nH]1`, the melting point was 235 to 236 °C.
`CCOCc1oc(-c2ccc(C(F)(F)F)cc2)cc1C(=O)OCC` showed a melting point of 103 to 105 °C.
As to `CN1C(=O)C=C(c2ccc3c(c2)CCCC3)C1=O`, the melting point lay within 104 to 107 °C.
For the molecule `CC(C)(c1ccccc1)N(C(N)=O)C(C)(C)c1ccccc1`, the melting point was 226 to 227 °C.
With `OCCOc1ccc(-n2cncn2)cc1`, the melting point fell in the range of 151 to 152 °C.
The value for `FC(F)(F)c1cc(-n2cncn2)c2cccc(C(F)(F)F)c2n1` was 106 to 107 °C; that for `CS(=O)(=O)NCCS(=O)(=O)N1CCN(S(=O)(=O)c2ccc(-c3ccc(Cl)cc3)s2)[C@@H](C(=O)NO)C1` was 118 to 122 °C; that for `O=C(NC(Cc1ccc(OCc2ccccc2F)cc1)C(=O)O)c1cn2ccc(-c3ccc(Cl)cc3)cc2n1` (configuration not stated) was 250 to 252 °C.
For `NC(=O)c1ccccc1-n1nnc2cccnc21`, the melting point was more than 340 °C.
`CCn1cc(Nc2nc(-c3cccc(N4Cc5cc(C(C)(C)C)ccc5C4=O)c3CO)cn(C)c2=O)cn1` displayed a melting point of 138 to 140 °C.
For `Cc1ccc(S(=O)(=O)N2[C@@H](Cc3nc(C4CC4)no3)CC[C@H]2c2ccc(F)cc2)cc1` (racemic), the melting point was found to be 102 °C.
`CC(C)n1c(NN)nc2ccccc2c1=O` showed a melting point of 123 to 124 °C.
Take `CCCCC(=O)Oc1cccc(NC(=O)C=C(C)OC)c1`: the melting point is 84 °C.
In turn, `CC1(C)OC(=O)Nc2ccc(-c3ccc(C#N)n3CC(=O)O)cc21` returned a melting point of 207 to 209 °C.
Regarding `CC(C)Cn1c(=O)n(C)c(=O)c2c(SCCCC(=O)O)n(Cc3cccc4ccccc34)nc21`, the melting point was determined as 149 °C.
The result for `O=C(O)COc1ccc(C(=O)c2ccccc2O)c(Cl)c1Cl` reads 201 to 203 °C; that for `O=C(O)Cc1cc(C(=O)C=Cc2ccccc2Cl)ccc1O`, 235 °C.
Take `COc1c(Cl)cc(C(C)(C)N2CC(C)=C(c3ccccc3)C2=O)cc1Cl`: the melting point lay within 136 to 139 °C.
`CC1CCNc2nc3ccc([N+](=O)[O-])cc3n21` (configuration not stated) registered a melting point of 172 to 178 °C.
On to `CCCCOc1c(-c2ccnc3ccc(C(C)=O)cc23)cc(C(C)C)cc1C(C)C`, for which the melting point came out at 133 °C.
The value for `O=C(O)c1cnc2c(NC(=O)c3c(Cl)cccc3Cl)cccc2c1` was more than 250 °C.
Regarding `CCOC(=O)c1ccc(OCCCCCCCCCCBr)cc1`, the melting point is 41 to 42 °C.
In turn, `O=C(O)CCn1c2ccc(O)cc2c2c3c(c(-c4ccccc4Cl)cc21)C(=O)NC3=O` came in with a melting point of 286 °C.
Molecule `CO[C@@H]1C[C@H](C)N(c2ccc(C#N)c3ccccc23)C1` yielded a melting point of 88 to 89 °C.
`CCNC(=O)ON=C(C)C1=CCCN(C)C1` showed a melting point of 74 to 78 °C.
Turning to `CCOc1ccc(S(=O)(=O)N2CCN(C)CC2)cc1C(=O)O`, the melting point was determined as 201 °C.
The molecule `CCCCCCc1sc(C(N)=O)c2c1-c1nn(C)cc1CC2` displayed a melting point of 194 to 195 °C.
`c1ccc2c(c1)OCC(CN1CCC(CNc3nc4cnccc4s3)CC1)O2` (configuration not stated): the melting point worked out at 147 °C.
In turn, `CC(C)(O)c1cccc(S(N)(=O)=O)c1` showed a melting point of 107 to 108 °C.
Consider `CC=CCN1CCNC1=C[N+](=O)[O-]`, for which the melting point lay within 82 to 85 °C.
The result for `O=C(O)CNC(=O)c1nc2ccc(Oc3ccccc3)cc2cc1O` reads 225 to 227 °C; that for `COc1ccc(C2=NN(C3CCN(S(C)(=O)=O)CC3)C(=O)CC2)cc1OC`, 164 to 166 °C.
`COc1cc(C2c3cc4c(cc3C(NC3=CC(=O)N(Cc5ccc(F)cc5)C3=O)C3COC(=O)C23)OCO4)cc(OC)c1O[Si](C)(C)C(C)(C)C` (configuration not stated): the melting point fell in the range of 182 to 184 °C.
For the molecule `NC(=O)c1c(C(F)(F)F)ccc(Cl)c1Cl`, the melting point lay within 118 to 120 °C.
Regarding `Cc1cc(C)c(-c2ccc3c(=O)c(C(=O)O)cn(C4CC4)c3c2C)cn1`, the melting point was 217 °C.
Molecule `CCCn1c(=O)c2c(nc(CO)n2C)n(CCC)c1=O` yielded a melting point of 111 to 112 °C.
For `O=C(O)CCOCc1ccccc1`, the melting point was determined as 35.2 °C.
The molecule `C/C(=N\OC(=O)c1ccc(CN2CCOCC2)cc1)[C@H]1CC[C@H]2[C@@H]3CCC4=CC(=O)CC[C@]4(C)[C@H]3CC[C@]12C` showed a melting point of 166 to 168 °C.
As to `Cc1ccc2c(=O)n3nccc3[nH]c2n1`, the melting point is more than 300 °C.
In turn, `CCCC(=O)n1nc2c(c1NC)c(=O)n(CCC)c(=O)n2Cc1cccc(Cl)c1` yielded a melting point of 152 to 153 °C.
Molecule `CCOC(=O)CNC(=O)C(=O)NCC(OC)OC` gave a melting point of 63 to 65 °C.
In turn, `C=CCc1cc(N2CCN(c3ccncc3)CC2)ccc1O` displayed a melting point of 180 to 182 °C.
Turning to `CC(C)(C)c1ccc(Sc2ccc(C=C3SC(=S)NC3=O)cc2)cc1`, the melting point lay within 211 to 212 °C.
In turn, `CC(=O)c1nc(-c2ccc(=O)n(C(C)C)n2)c(-c2ccccc2)nc1N` came in with a melting point of 234 to 236 °C.
Molecule `C=C(Cl)CN1C(=O)c2ccccc2Oc2ncccc21` yielded a melting point of 106 to 108 °C.
The molecule `CC(=O)Nc1ccc2ccccc2c1-c1c(P(=O)(c2ccccc2)c2ccccc2)ccc2ccccc12` gave a melting point of 95.4 °C.
The result for `CN1C(=O)CC[C@]2(C)c3ccc(-c4ccc5c(c4)CCC5=O)cc3CC[C@@H]12` reads 175 to 178 °C.

Usually melting point stands for the temperature of the solid-liquid transition.
